Test results as given in patent publication US10219516B2, “Molecules having pesticidal utility, and intermediates, compositions, and processes, related thereto” (priority 2015, dated 2019).
Like-named read-outs stand apart in the source and are kept apart here.

Assays:
[1] = tested on: Beet Armyworm (Spodoptera exigua, LAPHEG); experiment: Bioassay on Beet Armyworm (BAW), 128-well diet tray assay; assay type: in vivo
Description: (§1) Certain molecules disclosed in this document were tested against BAW and CL using procedures described in the following examples. In the reporting of the results, the “BAW & CL Rating Table” was used (See Table Section).
Bioassays on BAW were conducted using a 128-well diet tray assay. One to five second instar BAW larvae were placed in each well (3 mL) of the diet tray that had been previously filled with approximately 1.5 mL of artificial diet to which 50 μg/cm^2 of the test molecule (dissolved in 50 μL of 90:10 acetone-water mixture) had been applied (to each of eight wells) and then allowed to dry. Trays were covered with a clear self-adhesive cover, vented to allow gas exchange, and held at 25° C., 14:10 light-dark for five to seven days. Percent mortality was recorded for the larvae in each well; activity in the eight wells was then averaged. The results are indicated in the table entitled “Table ABC: Biological Results” (See Table Section).

[2] = tested on: Cabbage Looper (Trichoplusia ni, TRIPNI); experiment: Bioassay on Cabbage Looper (CL), 128-well diet tray assay; assay type: in vivo; details: for pest or weed control at 50 µg/cm2: Trichoplusia ni
Description: as §1
Bioassays on CL were conducted using a 128-well diet tray assay. one to five second instar CL larvae were placed in each well (3 mL) of the diet tray that had been previously filled with 1 mL of artificial diet to which 50 μg/cm^2 of the test molecule (dissolved in 50 μL of 90:10 acetone-water mixture) had been applied (to each of eight wells) and then allowed to dry. Trays were covered with a clear self-adhesive cover, vented to allow gas exchange, and held at 25° C., 14:10 light-dark for five to seven days. Percent mortality was recorded for the larvae in each well; activity in the eight wells was then averaged. The results are indicated in the table entitled “Table ABC: Biological Results” (See Table Section).

[3] = Species BAW (Beet Armyworm), read-out: BAW (Biological Results, rating)
[4] = Species CL (Cabbage Looper), read-out: CL (Biological Results, rating)
[5] = Cabbage Looper, 128-well diet tray assay, read-out: CL rating
[6] = Beet Armyworm, 128-well diet tray assay, read-out: BAW rating

SMILES | pest or weed control at 50 µg/cm2 [1, 3] [%] | pest or weed control at 50 µg/cm2 [2, 4] [%] | further results
N#Cc1ccc(NC(=O)c2cc(NC(=O)[C@H]3[C@H](c4cc(Cl)cc(Cl)c4)C3(Cl)Cl)ccc2Cl)cc1 (relative stereo) [F5, trans-2-Chloro-N-(4-cyanophenyl)-5-(2,2-dichloro-3-(3,5-dichlorophenyl)cyclopropane-1-carboxamido)benzamide] | 50 to 100 | 50 to 100 | 
O=C(Nc1ccc(C(F)(F)F)cc1)c1cc(NC(=O)[C@H]2[C@H](c3cc(Cl)cc(Cl)c3)C2(Cl)Cl)ccc1Cl (relative stereo) [F6, trans-2-Chloro-5-(2,2-dichloro-3-(3,5-dichlorophenyl)cyclopropane-1-carboxamido)-N-(4-(trifluoromethyl)phenyl)benzamide] | 50 to 100 | 50 to 100 | 
O=C(Nc1ccccc1F)c1cc(NC(=O)[C@H]2[C@H](c3cc(Cl)cc(Cl)c3)C2(Cl)Cl)ccc1Cl (relative stereo) [F17, trans-2-Chloro-5-(2,2-dichloro-3-(3,5-dichlorophenyl)cyclopropane-1-carboxamido)-N-(2-fluorophenyl)benzamide] | 50 to 100 | 50 to 100 | 
O=C(Nc1cccc(Cl)c1)c1cc(NC(=O)[C@H]2[C@H](c3cc(Cl)cc(Cl)c3)C2(Cl)Cl)ccc1Cl (relative stereo) [F43, trans-2-Chloro-N-(3-chlorophenyl)-5-(2,2-dichloro-3-(3,5-dichlorophenyl)cyclopropane-1-carboxamido)benzamide] | 50 to 100 | 50 to 100 | 
O=C(Nc1ccc(F)cc1)c1cc(NC(=O)[C@H]2[C@H](c3cc(Cl)cc(Cl)c3)C2(Cl)Cl)c(F)cc1Cl (relative stereo) [F48, trans-2-Chloro-5-(2,2-dichloro-3-(3,5-dichlorophenyl)cyclopropane-1-carboxamido)-4-fluoro-N-(4-fluorophenyl)benzamide] | 50 to 100 | 50 to 100 | 
CN(C(=O)c1cc(NC(=O)[C@H]2[C@H](c3cc(Cl)c(Cl)c(Cl)c3)C2(Cl)Cl)ccc1F)c1ccc(F)cc1 (relative stereo) [F60, trans-5-(2,2-dichloro-3-(3,4,5-trichlorophenyl)cyclopropane-1-carboxamido)-2-fluoro-N-(4-fluorophenyl)-N-methylbenzamide] | 50 to 100 | 50 to 100 | 
O=C(Nc1ccc(F)cc1)c1cc(NC(=O)[C@H]2[C@H](c3cc(Cl)c(Br)c(Cl)c3)C2(Cl)Cl)ccc1Cl (relative stereo) [F72, trans-5-(3-(4-Bromo-3,5-dichlorophenyl)-2,2-dichlorocyclopropane-1-carboxamido)-2-chloro-N-(4-fluorophenyl)benzamide] | 50 to 100 | 50 to 100 | 
O=C(Nc1ccc(F)cc1)c1cc(NC(=O)[C@H]2[C@H](c3cc(Cl)c(Cl)cc3Cl)C2(Cl)Cl)ccc1Cl (relative stereo) [F73, trans-2-Chloro-5-(2,2-dichloro-3-(2,4,5-trichlorophenyl)cyclopropane-1-carboxamido)-N-(4-fluorophenyl)benzamide] | 50 to 100 | 50 to 100 | 
O=C(Nc1ccccn1)c1cc(NC(=O)[C@H]2[C@H](c3cc(Cl)cc(Cl)c3)C2(Cl)Cl)ccc1Cl (relative stereo) [F78, trans-2-Chloro-5-(2,2-dichloro-3-(3,5-dichlorophenyl)cyclopropane-1-carboxamido)-N-(pyridin-2-yl)benzamide] | 50 to 100 | 50 to 100 | 
O=C(Nc1ccc(F)cc1)c1cc(NC(=O)[C@H]2[C@H](c3cc(C(F)(F)F)cc(C(F)(F)F)c3)C2(Cl)Cl)ccc1Cl (relative stereo) [F84, trans-5-(3-(3,5-Bis(trifluoromethyl)phenyl)-2,2-dichlorocyclopropane-1-carboxamido)-2-chloro-N-(4-fluorophenyl)benzamide] | 50 to 100 | 50 to 100 | 
O=C(Nc1c(F)cccc1F)c1cc(NC(=O)[C@H]2[C@H](c3cc(C(F)(F)F)cc(C(F)(F)F)c3)C2(Cl)Cl)ccc1Cl (relative stereo) [F86, trans-5-(3-(3,5-Bis(trifluoromethyl)phenyl)-2,2-dichlorocyclopropane-1-carboxamido)-2-chloro-N-(2,6-difluorophenyl)benzamide] | 50 to 100 | 50 to 100 | 
CSc1nc(NC(=O)c2cc(NC(=O)[C@H]3[C@H](c4cc(Cl)cc(Cl)c4)C3(Cl)Cl)ccc2Cl)n[nH]1 (relative stereo) [F184, trans-2-Chloro-5-(2,2-dichloro-3-(3,5-dichlorophenyl)cyclopropane-1-carboxamido)-N-(5-(methylthio)-1H-1,2,4-triazol-3-yl)benzamide] |  | 50 to 100 | 
CC(C)(C)OC(=O)N(C(=O)OC(C)(C)C)c1c(F)ccc(NC(=O)c2cc(NC(=O)[C@H]3[C@H](c4cc(Cl)cc(C#N)c4)C3(Cl)Cl)ccc2Cl)c1F (relative stereo) [F515, trans-tert-Butyl-N-((tert-butoxy)carbonyl)-N-(3-(2-chloro-5-(2,2-dichloro-3-(3-chloro-5-cyanophenyl)cyclopropane-1-carboxamido)benzamido)-2,6-difluorophenyl)carbamate] |  |  | pest or weed control at 50 µg/cm2 [2, 5]: 50 to 100%
CC1(c2cc(Cl)cc(Cl)c2)C(C(=O)Nc2ccc(Cl)c(C(=O)Nc3ccc(F)cc3)c2)C1(Cl)Cl (stereo not drawn) [F253, 2-Chloro-5-cis-2,2-dichloro-3-(3,5-dichlorophenyl)-3-methylcyclopropane-1-carboxamido)-N-(4-fluorophenyl)benzamide] |  |  | CL (Biological Results, rating) ([2]; Species CL (Cabbage Looper)): A (50-100)
CC(C)(C)OC(=O)N(C(=O)OC(C)(C)C)c1c(F)ccc(NC(=O)c2cc(NC(=O)C3C(c4cc(Cl)cc(Br)c4)C3(Cl)Cl)ccc2Cl)c1F (centres unmarked) [F514, tert-Butyl-N-((tert-butoxy)carbonyl)-N-(3-(5-(3-(3-bromo-5-chlorophenyl)-2,2-dichlorocyclopropane-1-carboxamido)-2-chlorobenzamido)-2,6-difluorophenyl)carbamate] |  |  | pest or weed control at 50 µg/cm2 [1, 6]: 50 to 100%
CC(C)(C)OC(=O)N(C(=O)OC(C)(C)C)c1c(F)cc(F)cc1NC(=O)c1cc(NC(=O)[C@H]2[C@H](c3cc(Cl)cc(Cl)c3)C2(Cl)Cl)ccc1Cl [F521, tert-Butyl-N-((tert-butoxy)carbonyl)-N-(2-(2-chloro-5-((1R,3R)-2,2-dichloro-3-(3,5-dichlorophenyl)cyclopropane-1-carboxamido)benzamido)-4,6-difluorophenyl)carbamate] |  |  | pest or weed control at 50 µg/cm2 [2, 5]: 0 to 50%
C=Cc1cc(Cl)cc(C2C(C(=O)Nc3ccc(Cl)c(C(=O)Nc4ccc(F)c(N(C(=O)OC(C)(C)C)C(=O)OC(C)(C)C)c4F)c3)C2(Cl)Cl)c1 (centres unmarked) [F523, tert-Butyl-N-((tert-butoxyl)carbonyl)-N-(3-(2-chloro-5-(2,2-dichloro-3-(3-chloro-5-vinylphenyl)cyclopropane-1-carboxamido)benzamido)-2,6-difluorophenyl)carbamate] |  |  | pest or weed control at 50 µg/cm2 [1, 6]: 0 to 50%
O=C(Nc1cc(Cl)c(Cl)c(Cl)c1)c1cc(NC(=O)C2C(c3cc(Cl)cc(Cl)c3)C2(Cl)Cl)ccc1Cl (stereo not drawn) [PF119, 2-Chloro-5-(trans)-2,2-dichloro-3-(3,5-dichlorophenyl)cyclopropane-1-carboxamido)-N-(3,4,5-trichlorophenyl)benzamide] |  |  | pest or weed control at 50 µg/cm2 [1, 6]: 50 to 100%
